Source: the supplement of paper PMC10307832

Tests used:
Assay in all cases: relative viability (nuclei count vs DMSO), 5 days (fraction); higher = more cells survive
[1] = compound: Cc1ccc2nc(NCCN)c3ncc(C)n3c2c1 + Cc1nc(NC(=O)N2CCC[C@H]2C(N)=O)sc1-c1ccnc(C(C)(C)C(F)(F)F)c1 [Alpelisib] (partner 2 µM)
Method in brief: (§1)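 Relative viability divides the nuclei count in treated wells by that in vehicle wells. Lung cancer cell lines were seeded in 1536-well plates, dosed by pin tool the next day, and fixed and stained after 5 days in one step with final 0.05% Triton X-100, 1% formaldehyde and 1 ug/ml Hoechst. Dosing was a single drug or a fixed anchor-drug dose plus five library-drug doses (not always all listed) in √10 steps, and values are medians of duplicate plates imaged at 4×.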

[2] = compound: Cc1ccc2nc(NCCN)c3ncc(C)n3c2c1 + CC(=O)c1c(C)c2cnc(Nc3ccc(N4CCNCC4)cn3)nc2n(C2CCCC2)c1=O [Palbociclib] (partner 0.5 µM)
Method in brief: as §1

[3] = compound: O=C(/C=C/c1ccccc1)NC(NC(=S)Nc1cccc2cccnc12)C(Cl)(Cl)Cl [Salubrinal] + Nc1nc2[nH]cc(CCc3ccc(C(=O)N[C@@H](CCC(=O)O)C(=O)O)cc3)c2c(=O)[nH]1 [Pemetrexed] (partner 0.2 µM)
Method in brief: as §1

[4] = compound: O=C(/C=C/c1ccccc1)NC(NC(=S)Nc1cccc2cccnc12)C(Cl)(Cl)Cl [Salubrinal] + CS(=O)(=O)N1CCN(Cc2cc3nc(-c4cccc5[nH]ncc45)nc(N4CCOCC4)c3s2)CC1 [Pictilisib] (partner 1 µM)
Method in brief: as §1

Cell Line	relative viability ([1]; first compound 0.04 µM)	relative viability ([1]; first compound 0.1265 µM)	relative viability ([1]; first compound 0.4 µM)	relative viability ([1]; first compound 1.265 µM)	relative viability ([1]; first compound 4 µM)	relative viability ([2]; first compound 0.04 µM)	relative viability ([2]; first compound 0.1265 µM)	relative viability ([2]; first compound 0.4 µM)	relative viability ([2]; first compound 1.265 µM)	relative viability ([2]; first compound 4 µM)	relative viability ([3]; first compound 0.08 µM)	relative viability ([3]; first compound 0.253 µM)	relative viability ([3]; first compound 0.8 µM)	relative viability ([3]; first compound 2.53 µM)	relative viability ([3]; first compound 8 µM)	relative viability ([4]; first compound 0.08 µM)	relative viability ([4]; first compound 0.253 µM)	relative viability ([4]; first compound 0.8 µM)	relative viability ([4]; first compound 2.53 µM)	relative viability ([4]; first compound 8 µM)
201T	1.03	1.01	1.02	1.05	1.02	0.396	0.367	0.33	0.363	0.323	0.356	0.321	0.403	0.318	0.364	0.591	0.636	0.778	0.706	0.678
A549	0.978	0.741	0.722	1.01	0.611											0.585	0.419	0.517	0.436	0.35
A-427	1.09	1.13	1.05	1.07	1.14	0.531	0.485	0.496	0.506	0.555	0.957	0.964	1.17	1.03	1.1	0.805	0.748	0.853	0.785	0.759
ABC-1	1.15	1.27	1.18	1.15	0.742	0.785	0.792	0.887	0.649	0.538						0.705	0.92	0.812	0.727	0.588
BEN	1.06	0.787	1.09	0.807	1.19	0.506	0.484	0.479	0.465	0.48	0.744	0.753	0.971	0.846	0.791	0.567	0.606	0.746	0.643	0.549
CAL-12T	1.17	1.11	1.3	1.25	0.992	0.499	0.47	0.39	0.376	0.48	1.4	0.754	1.46	1.07	1.21	0.392	0.488	0.438	0.734	0.528
COR-L23	0.904	0.663	0.916	0.809	0.495	0.383	0.301	0.323	0.318	0.323	0.203	0.205	0.194	0.206	0.196	0.946	0.666	0.899	0.676	0.432
COR-L 105	0.977	1.04	1.27	1.13	0.75	0.374	0.414	0.43	0.4	0.438	1.25	0.831	1.24	1.04	1.09	0.419	0.358	0.406	0.349	0.421
Calu-6	1.05	0.923	1.01	1.04	0.719											1.11	0.817	0.925	0.871	0.792
ChaGo-K-1						0.929	0.919	0.919	0.891	0.907	0.266	0.274	0.241	0.253	0.375	0.73	0.625	1.21	1.01	0.827
EBC-1	1.04	0.734	0.795	0.643	0.617											0.332	0.373	0.4	0.273	0.248
EKVX	0.962	0.856	0.83	0.808	0.778	0.441	0.358	0.36	0.351	0.295	0.411	0.361	0.444	0.385	0.325	0.508	0.494	0.525	0.461	0.482
EMC-BAC-2	0.748	0.722	0.72	0.793	0.719	0.55	0.536	0.509	0.521	0.486	0.42	0.441	0.459	0.473	0.478	0.607	0.454	0.574	0.583	0.565
EPLC-272H	1.07	0.937	0.896	1.06	0.96	0.337	0.348	0.315	0.257	0.249	0.255		0.363	0.342	0.294	0.293	0.282	0.355	0.33	0.24
H3255	0.77	0.613	0.705	0.659	0.593	0.329	0.298	0.312	0.327	0.317	0.562	0.582	0.558	0.557	0.604	0.561	0.535	0.576	0.456	0.487
HARA	0.839	0.831	0.804	0.715	0.788	0.2	0.236	0.237	0.222	0.268	0.254	0.285	0.327	0.273	0.254	0.524	0.328	0.558	0.328	0.375
HCC-15	0.879	0.906	0.93	0.868	0.814	0.789	0.773	0.616	0.708	0.485	0.205	0.266	0.234	0.231	0.211	0.77	0.643	0.837	0.728	0.759
HCC-44	0.776	0.787	0.786	0.711	0.769	0.934	0.94	0.914	0.894	0.99	0.641	0.708	0.66	0.698	0.662	0.592	0.591	0.767	0.649	0.493
